# Results published in PubChem BioAssay (NCI).
#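 Protocol summary: plate cells (96-well), add compound at 5 concentrations, incubate 48 h, interpolate endpoints linearly. At the TGI there is no net growth.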
# What was measured:
# Test in all cases: NCI tumour cell line growth inhibition, 48 h
# OVCAR-5 ovarian = system: OVCAR-5 ovarian
# ACHN renal = system: ACHN renal
# SK-MEL-2 melanoma = system: SK-MEL-2 melanoma
# NCI/ADR-RES ovarian = system: NCI/ADR-RES ovarian
# COLO 205 colon = system: COLO 205 colon
# RPMI-8226 leukemia = system: RPMI-8226 leukemia
# MALME-3M melanoma = system: MALME-3M melanoma
# SF-295 CNS = system: SF-295 CNS
# MDA-MB-435 = system: MDA-MB-435
# LOX IMVI melanoma = system: LOX IMVI melanoma
# SF-539 CNS = system: SF-539 CNS
# UACC-62 melanoma = system: UACC-62 melanoma
# HCC-2998 colon = system: HCC-2998 colon
# HS 578T breast = system: HS 578T breast
# HCT-116 colon = system: HCT-116 colon
# SNB-75 CNS = system: SNB-75 CNS
# NCI-H522 lung = system: NCI-H522 lung
# HOP-62 NSCLC = system: HOP-62 NSCLC
# RXF 393 renal = system: RXF 393 renal
# A549 NSCLC = system: A549 NSCLC
# PC-3 prostate = system: PC-3 prostate
# KM12 colon = system: KM12 colon
# MDA-N = system: MDA-N
# TK-10 renal = system: TK-10 renal
# HOP-92 NSCLC = system: HOP-92 NSCLC
# CAKI-1 renal = system: CAKI-1 renal
# UO-31 renal = system: UO-31 renal
# HL-60(TB) leukemia = system: HL-60(TB) leukemia
# EKVX NSCLC = system: EKVX NSCLC
# SK-MEL-5 melanoma = system: SK-MEL-5 melanoma
# K-562 leukemia = system: K-562 leukemia
# 786-0 renal = system: 786-0 renal
# HCT-15 colon = system: HCT-15 colon
# A498 renal = system: A498 renal
# NCI-H460 lung = system: NCI-H460 lung
# MOLT-4 leukemia = system: MOLT-4 leukemia
# SF-268 CNS = system: SF-268 CNS
# T-47D breast = system: T-47D breast
# M14 melanoma = system: M14 melanoma
# CCRF-CEM leukemia = system: CCRF-CEM leukemia
# BT-549 breast = system: BT-549 breast
# U251 CNS = system: U251 CNS
# OVCAR-8 ovarian = system: OVCAR-8 ovarian
# SK-OV-3 ovarian = system: SK-OV-3 ovarian
# SW-620 colon = system: SW-620 colon
# OVCAR-3 ovarian = system: OVCAR-3 ovarian
# SN12C renal = system: SN12C renal
# IGROV1 ovarian = system: IGROV1 ovarian
# MDA-MB-231 breast = system: MDA-MB-231 breast
# SK-MEL-28 melanoma = system: SK-MEL-28 melanoma
# SR leukemia = system: SR leukemia
# OVCAR-4 ovarian = system: OVCAR-4 ovarian
# UACC-257 melanoma = system: UACC-257 melanoma
# HT29 colon = system: HT29 colon
# NCI-H23 lung = system: NCI-H23 lung
# MCF7 breast = system: MCF7 breast
# SNB-19 CNS = system: SNB-19 CNS
# DU-145 prostate = system: DU-145 prostate
# NCI-H226 lung = system: NCI-H226 lung
smiles,measurement,setting,value
NC1=NCC(CN2CCOCC2)O1 (stereo not drawn),TGI,OVCAR-5 ovarian,> 100 µM
same,TGI,ACHN renal,> 100 µM
same,TGI,SK-MEL-2 melanoma,> 100 µM
same,TGI,NCI/ADR-RES ovarian,> 100 µM
same,TGI,COLO 205 colon,> 100 µM
same,TGI,RPMI-8226 leukemia,> 100 µM
same,TGI,MALME-3M melanoma,> 100 µM
same,TGI,SF-295 CNS,> 100 µM
same,TGI,MDA-MB-435,> 100 µM
same,TGI,LOX IMVI melanoma,> 100 µM
same,TGI,SF-539 CNS,> 100 µM
same,TGI,UACC-62 melanoma,> 100 µM
same,TGI,HCC-2998 colon,> 100 µM
same,TGI,HS 578T breast,> 100 µM
same,TGI,HCT-116 colon,> 100 µM
same,TGI,SNB-75 CNS,> 100 µM
same,TGI,NCI-H522 lung,> 100 µM
same,TGI,HOP-62 NSCLC,> 100 µM
same,TGI,RXF 393 renal,> 100 µM
same,TGI,A549 NSCLC,> 100 µM
same,TGI,PC-3 prostate,> 100 µM
same,TGI,KM12 colon,> 100 µM
same,TGI,MDA-N,> 100 µM
same,TGI,TK-10 renal,> 100 µM
same,TGI,HOP-92 NSCLC,> 100 µM
same,TGI,CAKI-1 renal,> 100 µM
same,TGI,UO-31 renal,> 100 µM
same,TGI,HL-60(TB) leukemia,> 100 µM
same,TGI,EKVX NSCLC,> 100 µM
same,TGI,SK-MEL-5 melanoma,> 100 µM
same,TGI,K-562 leukemia,> 100 µM
same,TGI,786-0 renal,> 100 µM
same,TGI,HCT-15 colon,> 100 µM
same,TGI,A498 renal,> 100 µM
same,TGI,NCI-H460 lung,> 100 µM
same,TGI,MOLT-4 leukemia,> 100 µM
same,TGI,SF-268 CNS,> 100 µM
same,TGI,T-47D breast,> 100 µM
same,TGI,M14 melanoma,> 100 µM
same,TGI,CCRF-CEM leukemia,> 100 µM
same,TGI,BT-549 breast,> 100 µM
same,TGI,U251 CNS,> 100 µM
same,TGI,OVCAR-8 ovarian,> 100 µM
same,TGI,SK-OV-3 ovarian,> 100 µM
same,TGI,SW-620 colon,> 100 µM
same,TGI,OVCAR-3 ovarian,> 100 µM
same,TGI,SN12C renal,> 100 µM
same,TGI,IGROV1 ovarian,> 100 µM
same,TGI,MDA-MB-231 breast,> 100 µM
same,TGI,SK-MEL-28 melanoma,> 100 µM
same,TGI,SR leukemia,> 100 µM
same,TGI,OVCAR-4 ovarian,> 100 µM
same,TGI,UACC-257 melanoma,> 100 µM
same,TGI,HT29 colon,> 100 µM
same,TGI,NCI-H23 lung,> 100 µM
same,TGI,MCF7 breast,> 100 µM
same,TGI,SNB-19 CNS,> 100 µM
same,TGI,DU-145 prostate,> 100 µM
COc1cccc2c(=O)oc(-c3ccc(C(C)(C)C)cc3)nc12,TGI,OVCAR-5 ovarian,> 100 µM
same,TGI,ACHN renal,> 100 µM
same,TGI,SK-MEL-2 melanoma,> 100 µM
same,TGI,NCI/ADR-RES ovarian,> 100 µM
same,TGI,COLO 205 colon,> 100 µM
same,TGI,RPMI-8226 leukemia,> 100 µM
same,TGI,MALME-3M melanoma,> 100 µM
same,TGI,SF-295 CNS,> 100 µM
same,TGI,MDA-MB-435,> 100 µM
same,TGI,LOX IMVI melanoma,53.9 µM
same,TGI,SF-539 CNS,> 100 µM
same,TGI,UACC-62 melanoma,> 100 µM
same,TGI,HCC-2998 colon,33.5 µM
same,TGI,HS 578T breast,> 100 µM
same,TGI,HCT-116 colon,> 100 µM
same,TGI,SNB-75 CNS,> 100 µM
same,TGI,NCI-H522 lung,89.6 µM
same,TGI,HOP-62 NSCLC,> 100 µM
same,TGI,RXF 393 renal,> 100 µM
same,TGI,A549 NSCLC,> 100 µM
same,TGI,PC-3 prostate,> 100 µM
same,TGI,KM12 colon,> 100 µM
same,TGI,MDA-N,> 100 µM
same,TGI,TK-10 renal,> 100 µM
same,TGI,HOP-92 NSCLC,> 100 µM
same,TGI,CAKI-1 renal,> 100 µM
same,TGI,UO-31 renal,> 100 µM
same,TGI,HL-60(TB) leukemia,44 µM
same,TGI,EKVX NSCLC,> 100 µM
same,TGI,SK-MEL-5 melanoma,87.4 µM
same,TGI,K-562 leukemia,> 100 µM
same,TGI,786-0 renal,> 100 µM
same,TGI,HCT-15 colon,> 100 µM
same,TGI,A498 renal,> 100 µM
same,TGI,NCI-H460 lung,> 100 µM
same,TGI,MOLT-4 leukemia,48.2 µM
same,TGI,SF-268 CNS,> 100 µM
same,TGI,T-47D breast,> 100 µM
same,TGI,M14 melanoma,> 100 µM
same,TGI,CCRF-CEM leukemia,> 100 µM
same,TGI,BT-549 breast,> 100 µM
same,TGI,U251 CNS,> 100 µM
same,TGI,OVCAR-8 ovarian,> 100 µM
same,TGI,SK-OV-3 ovarian,> 100 µM
same,TGI,SW-620 colon,> 100 µM
same,TGI,OVCAR-3 ovarian,81.8 µM
same,TGI,SN12C renal,> 100 µM
same,TGI,IGROV1 ovarian,> 100 µM
same,TGI,MDA-MB-231 breast,> 100 µM
same,TGI,SK-MEL-28 melanoma,> 100 µM
same,TGI,SR leukemia,63.1 µM
same,TGI,OVCAR-4 ovarian,> 100 µM
same,TGI,UACC-257 melanoma,> 100 µM
same,TGI,HT29 colon,> 100 µM
same,TGI,NCI-H23 lung,> 100 µM
same,TGI,MCF7 breast,> 100 µM
same,TGI,SNB-19 CNS,> 100 µM
same,TGI,DU-145 prostate,> 100 µM
C=C(Br)C(C)(Br)CCC(Br)C(C)(C)Cl (stereo not drawn),TGI,OVCAR-5 ovarian,39.7 µM
same,TGI,ACHN renal,35.6 µM
same,TGI,SK-MEL-2 melanoma,51.6 µM
same,TGI,NCI/ADR-RES ovarian,54.2 µM
same,TGI,COLO 205 colon,33.8 µM
same,TGI,RPMI-8226 leukemia,58.4 µM
same,TGI,MALME-3M melanoma,39.3 µM
same,TGI,SF-295 CNS,32.7 µM
same,TGI,MDA-MB-435,41.9 µM
same,TGI,SF-539 CNS,31.6 µM
same,TGI,UACC-62 melanoma,40.7 µM
same,TGI,HCC-2998 colon,32.7 µM
same,TGI,HS 578T breast,72 µM
same,TGI,HCT-116 colon,25 µM
same,TGI,SNB-75 CNS,33.9 µM
same,TGI,NCI-H522 lung,20.4 µM
same,TGI,HOP-62 NSCLC,39.4 µM
same,TGI,RXF 393 renal,37.5 µM
same,TGI,A549 NSCLC,> 100 µM
same,TGI,PC-3 prostate,36.3 µM
same,TGI,KM12 colon,32 µM
same,TGI,MDA-N,39.8 µM
same,TGI,TK-10 renal,32.7 µM
same,TGI,HOP-92 NSCLC,30.2 µM
same,TGI,UO-31 renal,32 µM
same,TGI,HL-60(TB) leukemia,16.2 µM
same,TGI,EKVX NSCLC,51.3 µM
same,TGI,SK-MEL-5 melanoma,32.4 µM
same,TGI,K-562 leukemia,> 47.5 µM
same,TGI,786-0 renal,33.5 µM
same,TGI,HCT-15 colon,32.7 µM
same,TGI,A498 renal,45.5 µM
same,TGI,NCI-H460 lung,36.6 µM
same,TGI,MOLT-4 leukemia,24.5 µM
same,TGI,SF-268 CNS,36.1 µM
same,TGI,T-47D breast,44.1 µM
same,TGI,M14 melanoma,39 µM
same,TGI,CCRF-CEM leukemia,13.4 µM
same,TGI,BT-549 breast,52.6 µM
same,TGI,U251 CNS,29.7 µM
same,TGI,OVCAR-8 ovarian,35.7 µM
same,TGI,SK-OV-3 ovarian,60.4 µM
same,TGI,SW-620 colon,30.4 µM
same,TGI,OVCAR-3 ovarian,33.5 µM
same,TGI,SN12C renal,39.5 µM
same,TGI,IGROV1 ovarian,18.3 µM
same,TGI,MDA-MB-231 breast,34.8 µM
same,TGI,SK-MEL-28 melanoma,33.3 µM
same,TGI,SR leukemia,27.9 µM
same,TGI,OVCAR-4 ovarian,34.4 µM
same,TGI,UACC-257 melanoma,37.4 µM
same,TGI,HT29 colon,40.7 µM
same,TGI,NCI-H226 lung,81.3 µM
same,TGI,NCI-H23 lung,36.5 µM
same,TGI,MCF7 breast,31.5 µM
same,TGI,SNB-19 CNS,34.4 µM
same,TGI,DU-145 prostate,43.1 µM
